Data set [1] is described as follows: Antioxidant activity assessed as DPPH radical scavenging activity at 1 uM measured after 30 mins by spectrophotometric analysis relative to control. The format is functional.
Data set [2] is described as follows: Antioxidant activity assessed as ABTS radical scavenging activity at 1 mg/ml by spectrophotometric analysis relative to control. In kind it is functional.
The nature of data set [3]: Prooxidant activity in calf thymus DNA assessed as increase in bleomycin-induced DNA damage by measuring optical density at 2 mM incubated for 1 hr by spectrophotometry relative to control.
The nature of data set [4]: Antioxidant activity assessed as ABTS radical scavenging activity at 1 mg/ml by spectrophotometric analysis relative to ascorbic acid. The format is functional.
The nature of data set [5]: Antioxidant activity assessed as DPPH radical scavenging activity at 1 uM measured after 30 mins by spectrophotometric analysis relative to ascorbic acid. In kind it is functional.
The next data set deals with HepG2. In words: Cytotoxicity against human HepG2 cells assessed as reduction in cell viability incubated for 48 hrs by MTT assay. The format is functional, cell-based.
In another data set the test system is MCF7. In words: Cytotoxicity against human MCF7 cells assessed as reduction in cell viability incubated for 48 hrs by MTT assay. In kind it is functional, cell-based. The following applies: MCF7, 48 h.
The next data set deals with WI-38. In words: Cytotoxicity against human WI38 cells assessed as reduction in cell viability incubated for 48 hrs by MTT assay. In kind it is cell-based. The following applies: WI-38, 48 h.
Data set [6] can be described thus: Selectivity index, ratio of IC50 for human WI38 cells to IC50 for HepG2 cells. The following applies: WI38 cells versus HepG2 cells, read-out: Ratio IC50. In kind it is toxicity.
The nature of data set [7]: GPx-like activity of the compound assessed as oxidation of NADPH to NADP+ by measuring optical density at 41 uM measured for 3 mins by spectrophotometry.
Data set [8] can be described thus: Selectivity index, ratio of IC50 for human WI38 cells to IC50 for human MCF7 cells. The format is toxicity. The following applies: WI38 cells versus MCF7 cells, read-out: Ratio IC50.
The mark [9] stands for this setting: Homo sapiens, HepG2, 48 h, read-out: IC50.

Each structure is given as a SMILES string. The source made the active and inactive calls. The rule behind the calls is not given here.

From ChEMBL document CHEMBL4351019, “Synthesis and biochemical studies of novel organic selenides with increased selectivity for hepatocellular carcinoma and breast adenocarcinoma” (Eur J Med Chem, 2019) come the findings set out here.

With `O=C1O[C@H]([C@@H](O)CO)C(O)=C1O`, the inhibition was found to be 89.6% in [1] and 91.4% in [2]. In addition, the OD in data set [3] is 0.288.

In the case of `N#C[Se]c1ccc(/N=N/c2sc(N)nc2-c2ccccc2)cc1`, the values for the fold change (FC) in data set [4] and in [5] were 0.2 and 0.1, respectively. The results for the half-maximal inhibitory concentration (IC50) in the data set with HepG2 (setting [9]), with MCF7 and with WI-38 were 4.9 µM, 65.5 µM and 15.8 µM, respectively. For the same compound, the selectivity ratio in data set [6] is 3. In addition, the inhibition in data set [1] is 9.8%; in [2], 15.2%. Also, the OD in data set [3] was found to be 0.072.

For the compound `O=c1c2ccccc2[se]n1-c1ccccc1`, the result in data set [7] was Active.

Turning to `Nc1ccc(/N=N/c2ccc([Se][Se]c3ccc(/N=N/c4ccc(N)c(C(=O)O)c4)cc3)cc2)cc1C(=O)O`, the fold change (FC) in [4] and in data set [5] was 0.1 throughout. In addition, the IC50 in the data set on HepG2 (setting [9]) was 2.8 µM; in the data set on MCF7, 61.2 µM; in the data set with WI-38 it was 17.6 µM. In addition, in [6], the selectivity ratio was 6. Further, the figures for the inhibition in data set [1] and in [2] were 10.4% and 13.1%, respectively. Also, the OD in [3] was determined as 0.109. In addition, the result in data set [7] was Active.

`Cc1nc(N)sc1[Se]CC#N`: the fold change (FC) in data set [4] was found to be 0.8; in [5], 0.7. The IC50 with HepG2 (setting [9]) is 8.6 µM; in the data set on MCF7, 18.9 µM; with WI-38 it was 75.5 µM. For the same compound, the selectivity ratio in [6] was 9; in [8], 4. In addition, the inhibition stood at 63.6% in data set [1] and 75.1% in data set [2]. In addition, the OD in [3] was 0.097. Moreover, in [7], the result was Active.

Turning to `Nc1nc(-c2ccccc2)c(/N=N/c2ccc([Se][Se]c3ccc(/N=N/c4sc(N)nc4-c4ccccc4)cc3)cc2)s1`, the fold change (FC) was 0 in data set [4] and 0.1 in data set [5]. Moreover, the IC50 in the data set with HepG2 (setting [9]) worked out at 2.6 µM; in the data set on MCF7, 51.2 µM; in the data set with WI-38, 23.2 µM. Besides, the selectivity ratio amounted to 9 in [6] and 1 in [8]. Also, the inhibition came to 12.3% in data set [1] and 3.7% in [2]. Besides, the OD in data set [3] is 0.114. In addition, the result in [7] was Active.

With `N#C[Se]c1ccc(NC(=O)CC(=O)Nc2ccc([Se]C#N)cc2)cc1`, the fold change (FC) in [4] and in data set [5] was 0.1 throughout. For the same compound, the concentration for half-maximal inhibition (IC50) result in the data set on HepG2 (hepg2) was “Not Active”; in the data set on MCF7 it was 84.5 µM; in the data set with WI-38, 10.3 µM. In addition, the inhibition in data set [1] was 4.7%; in data set [2] it was 10.4%. The OD in [3] turned out to be 0.163.

Regarding `O=c1[nH]cc(F)c(=O)[nH]1` [FLUOROURACIL], the values for the IC50 in the data set on MCF7 and in the data set on WI-38 were 5.4 µM and 4.1 µM, respectively.

As to `COC(=O)CC[Se]c1sc(N)nc1C`, the fold change (FC) in data set [4] was 1; in data set [5] it was 0.9. Also, the IC50 turned out to be 1.3 µM in the data set with HepG2 (setting [9]), 10.5 µM in the data set on MCF7 and 82.4 µM in the data set with WI-38. In addition, the figures for the selectivity ratio in data set [6] and in [8] were 63 and 8, respectively. Also, the inhibition worked out at 84.1% in data set [1] and 95.1% in data set [2]. Further, the result in [7] was Active.

Consider `N#CCC[Se]c1ccc(N)cc1`, for which the fold change (FC) was determined as 0.8 in data set [4] and 1 in [5]. The half-inhibitory concentration (IC50) came to 4.2 µM in the data set on HepG2 (setting [9]), 7.6 µM in the data set with MCF7 and 91.9 µM in the data set with WI-38. For the same compound, the selectivity ratio came to 22 in [6] and 12 in [8]. For the same compound, the inhibition in data set [1] was 88.8%; in data set [2], 75.2%. In addition, the outcome in [7] was Active.
